Patent US9211283B2, “Nanoparticle carrier systems based on human serum albumin for photodynamic therapy” (Biolitec Pharma Marketing Ltd, priority 2009, dated 2015)

Tests used:
[1] = Singlet oxygen generation and triplet parameters; format: physicochemical; details: in ethanol
Jurkat cells = assay: Dark toxicity (trypan blue test, apoptotic blebbing); format: cell-based; details: 3 μM mTHPC, 1 h, 3 h, 5 h and 24 h incubation in darkness, FIG. 6A
Experimental: Intracellular uptake and phototoxicity of the present nanoparticles formulation was studied using Jurkat-cell suspensions cultured in RPMI1640 medium. All cells were incubated in 3 μM mTHPC and mTHPC loaded into different concentration of HSA based nanoparticles for set period of time (1 h, 3 h, 5 h, 24 h). The HSA-based nanoparticles of varying HSA concentration was used to determine the intracellular uptake and phototoxicity effect of the cells suspension.
Trypan blue test was used to assess the necrotic cells, apoptotic cells were detected by their change of cell shape (apoptotic blebbing).
In each case Jurkat cells were incubated in five samples. After 1 h, 3 h, 5 h. and 24 h incubation in darkness an aliquot of each sample was investigated. Trypan blue test was used to assess the necrotic cells, apoptotic cells were detected by their change of cell shape (apoptotic blebbing). Little or no effect was found. In other words dark toxicity was not observed for the mTHPC concentrations used.

Fluorescence lifetime = format: physicochemical

O=C([O-])c1c(Cl)c(Cl)c(Cl)c(Cl)c1-c1c2cc(I)c(=O)c(I)c-2oc2c(I)c([O-])c(I)cc12.[Na+].[Na+] [Rose Bengal]
ΦΔ (±0.03) (singlet oxygen quantum yield) [1]: 0.75
τT (lifetime of triplet state) [1]: 3.3 ± 0.1 μs
τΔ (lifetime of singlet oxygen) [1]: 64.1 ± 0.2 μs

Oc1cccc(-c2c3nc(c(-c4cccc(O)c4)c4ccc([nH]4)c(-c4cccc(O)c4)c4nc(c(-c5cccc(O)c5)c5ccc2[nH]5)CC4)C=C3)c1 [mTHPC, 5,10,15,20-tetrakis(3-hydroxyphenyl)-chlorin]
Dark toxicity (Jurkat cells): not observed

Oc1cccc(-c2c3nc(c(-c4cccc(O)c4)c4ccc([nH]4)c(-c4cccc(O)c4)c4nc(c(-c5cccc(O)c5)c5ccc2[nH]5)C=C4)C=C3)c1 [mTHPP, 5,10,15,20-tetrakis(m-hydroxyphenyl)-porphyrin]
τ3 [ns] ± 0.2 (Fluorescence lifetime; fluorescence lifetime, in EtOH (monomers)): 9.6 ns
Amplitude [%] of τ3 (Fluorescence lifetime; in EtOH): 100%
